Measurements reported in patent US5391540A, “Substituted pyridine compounds” (Rohm and Haas Company, priority 1993, dated 1995).

Experiments:
Test in all cases: Pre-emergent herbicidal activity (Table A)
Assay type in all cases: in vivo
Velvetleaf = conditions: Abutilon theophrasti, pre-emergence, Vele, 11.2 kg/ha, 10-14 days, read-out: herbicidal rating (% inhibition)
Summary of the method: (§1)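 Percent inhibition per species, scored on a rating scale, after pre-emergent soil incorporation: test compound in acetone or water carrier mixed into cover soil, layered over seeded topsoil or vegetative propagules.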

Downy Brome = conditions: Bromus tectorum, pre-emergence, Dobr, 11.2 kg/ha, 10-14 days, read-out: herbicidal rating (% inhibition)
Summary of the method: as §1

Cocklebur = conditions: Xanthium strumarium, pre-emergence, Cobu, 11.2 kg/ha, 10-14 days, read-out: herbicidal rating (% inhibition)
Summary of the method: as §1

Barnyardgrass = conditions: Echinochloa crus-galli, pre-emergence, Bygr, 11.2 kg/ha, 10-14 days, read-out: herbicidal rating (% inhibition)
Summary of the method: as §1

Yellow Nutsedge = conditions: Cyperus, pre-emergence, Yens, 11.2 kg/ha, 10-14 days, read-out: herbicidal rating (% inhibition)
Summary of the method: as §1

Morningglory = conditions: Ipomoea, pre-emergence, Mogl, 11.2 kg/ha, 10-14 days, read-out: herbicidal rating (% inhibition)
Summary of the method: as §1

Indian Mustard = conditions: Brassica juncea, pre-emergence, Inmu, 11.2 kg/ha, 10-14 days, read-out: herbicidal rating (% inhibition)
Summary of the method: (§2)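 Seeds were sown on compacted topsoil and covered with soil into which test compound (in acetone or water carrier) had been mixed at 11.2 kg/ha. Pans were kept watered on a greenhouse bench, and percent inhibition was scored as a rating about 10-14 days (usually 11) after treatment.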

Wild Buckwheat = conditions: Fallopia convolvulus, pre-emergence, Wibw, 11.2 kg/ha, 10-14 days, read-out: herbicidal rating (% inhibition)
Summary of the method: as §2

Seedling Johnsongrass = conditions: Sorghum halepense, pre-emergence, Sejg, 11.2 kg/ha, 10-14 days, read-out: herbicidal rating (% inhibition)
Summary of the method: as §2

Annual Bluegrass = conditions: pre-emergence, Anbg, 11.2 kg/ha, 10-14 days, read-out: herbicidal rating (% inhibition)
Summary of the method: as §2

| SMILES | inhibition at 11200 g/ha (Velvetleaf) [%] | inhibition at 11200 g/ha (Downy Brome) [%] | inhibition at 11200 g/ha (Cocklebur) [%] | inhibition at 11200 g/ha (Barnyardgrass) [%] | inhibition at 11200 g/ha (Yellow Nutsedge) [%] | inhibition at 11200 g/ha (Morningglory) [%] | inhibition at 11200 g/ha (Indian Mustard) [%] | inhibition at 11200 g/ha (Wild Buckwheat) [%] | inhibition at 11200 g/ha (Seedling Johnsongrass) [%] | inhibition at 11200 g/ha (Annual Bluegrass) [%] |
| --- | --- | --- | --- | --- | --- | --- | --- | --- | --- | --- |
| COC(=O)c1c(OC)nc(C(F)(F)F)c(C(=O)N2CCCO2)c1CC(C)C [Compound 132, 3-pyridinecarboxylic acid, 5-(2-isoxazolidinecarbonyl)-2-methoxy-4-(2-methylpropyl)-6-(trifluoromethyl)-, methyl ester] | 75 to 100 | 75 to 100 | 0 to 24 | 75 to 100 | 0 to 24 | 50 to 74 | 75 to 100 | 75 to 100 | 75 to 100 | 75 to 100 |
| COC(=O)c1c(OC)nc(C(F)(F)F)c(C(=O)n2cc(NC(C)=O)cn2)c1CC(C)C [Compound 107, 3-pyridinecarboxylic acid, 5-[[4-(acetylamino)-1H-pyrazol-1-yl]carbonyl]-2-methoxy-4-(2-methylpropyl)-6-(trifluoromethyl)-, methyl ester] | 75 to 100 | 0 to 24 | 0 to 24 | 75 to 100 | 0 to 24 | 75 to 100 | 75 to 100 | 50 to 74 | 75 to 100 | 75 to 100 |
| COC(=O)c1c(OC)nc(C(F)(F)F)c(C(=O)n2cc([N+](=O)[O-])cn2)c1CC(C)C [Compound 101, 3-pyridinecarboxylic acid, 2-methoxy-4-(2-methylpropyl)-5-[(4-nitro-1H-pyrazo1-1-yl)carbonyl]-6-(trifluoromethyl)-, methyl ester] | 50 to 74 | 50 to 74 | 25 to 49 | 75 to 100 | 0 to 24 | 50 to 74 | 75 to 100 | 75 to 100 | 75 to 100 | 75 to 100 |
| COC(=O)c1c(OC)nc(C(F)(F)F)c(CO)c1CC1CC1 [Compound 117, 3-pyridinecarboxylic acid, 4-(cyclopropylmethyl)-5-(hydroxymethyl)-2-methoxy-6-(trifluoromethyl)-, methyl ester] | 25 to 49 | 0 to 24 | 0 to 24 | 75 to 100 | 0 to 24 | 0 to 24 | 50 to 74 | 50 to 74 | 75 to 100 | 75 to 100 |
| COC(=O)c1c(OC)nc(C(F)(F)F)c(C(=O)n2cc(C#N)cn2)c1CC(C)C [Compound 111, 3-pyridinecarboxylic acid, 5-[(4-cyano-1H-pyrazo1-1-yl)carbonyl]-2-methoxy-4-(2-methylpropyl)-6-(trifluoromethyl)-, methyl ester] | 75 to 100 | 50 to 74 | 0 to 24 | 75 to 100 | 0 to 24 | 75 to 100 | 75 to 100 | 75 to 100 | 75 to 100 | 75 to 100 |
| COC(=O)c1c(OC)nc(C(F)(F)F)c(C(=O)n2cncn2)c1C1CCC1 [Compound 141] | 75 to 100 | 75 to 100 | 0 to 24 | 75 to 100 | 50 to 74 | 75 to 100 | 75 to 100 | 75 to 100 | 75 to 100 | 75 to 100 |
| CCOC=NNC(=O)c1c(C(F)(F)F)nc(OC)c(C(=O)OC)c1CC(C)C [Compound 124, 3,5-pyridinedicarboxylic acid, 2-methoxy-4-(2-methylpropyl)-6-(trifluoromethyl)-, 3-methyl ester, 5-(ethoxymethylene)hydrazide] | 0 to 24 | 0 to 24 | 0 to 24 | 0 to 24 | 0 to 24 | 0 to 24 | 0 to 24 | 0 to 24 | 0 to 24 | 0 to 24 |
| COC(=O)c1c(OC)nc(C(F)(F)F)c(C2=NCCCO2)c1CC(C)C [Compound 99] | 75 to 100 | 75 to 100 | 0 to 24 | 75 to 100 | 0 to 24 | 50 to 74 | 75 to 100 | 25 to 49 | 75 to 100 | 75 to 100 |
| COC(=O)c1c(OC)nc(C(F)(F)F)c(C2SCCCS2)c1CC(C)C [Compound 94, 3-pyridinecarboxylic acid, 5-(1,3-dithian-2-yl)-2-methoxy-4-(2-methylpropyl)-6-(trifluoromethyl)-, methyl ester] | 75 to 100 | 50 to 74 | 25 to 49 | 75 to 100 | 0 to 24 | 75 to 100 | 75 to 100 | 75 to 100 | 75 to 100 | 75 to 100 |
| COC(=O)c1c(OC)nc(C(F)(F)F)c(C(=O)n2cc(N)cn2)c1CC(C)C [Compound 108, 3-pyridinecarboxylic acid, 5-[(4-amino-1H-pyrazo1-1-yl)carbonyl]-2-methoxy-4-(2-methylpropyl)-6-(trifluoromethyl)-, methyl ester] | 50 to 74 | 0 to 24 | 0 to 24 | 75 to 100 | 0 to 24 | 0 to 24 | 75 to 100 | 75 to 100 | 50 to 74 | 75 to 100 |
| COC(=O)c1c(OC)nc(C(F)(F)F)c(C(=O)n2cc(Cl)cn2)c1CC(C)C [Compound 104] | 50 to 74 | 50 to 74 | 0 to 24 | 75 to 100 | 0 to 24 | 50 to 74 | 75 to 100 | 50 to 74 | 75 to 100 | 75 to 100 |
| COC(=O)c1c(OC)nc(C(F)(F)F)c(C(=O)SC)c1CC1CC1 [Compound 119, 3-pyridinecarboxylic acid, 4-(cyclopropylmethyl)-2-methoxy-5-[(methylthio)carbonyl]-6-(trifluoromethyl)-, methyl ester] | 75 to 100 | 75 to 100 | 50 to 74 | 75 to 100 | 75 to 100 | 75 to 100 | 75 to 100 | 75 to 100 | 75 to 100 | 75 to 100 |
| COc1nc(C(F)(F)F)c(C=O)c(CC(C)C)c1C(=O)SC [Compound 135, 3-pyridinecarbothioic acid, 5-formy1-2-methoxy-4-(2-methylpropyl)-6-(trifluoromethyl)-, S-methyl ester] | 50 to 74 | 75 to 100 | 0 to 24 | 75 to 100 | 0 to 24 | 0 to 24 | 75 to 100 | 25 to 49 | 50 to 74 | 75 to 100 |
| COC(=O)c1c(OC)nc(C(F)(F)F)c(C2OCCS2(=O)=O)c1CC(C)C (stereo not drawn) [Compound 127, 3-pyridinecarboxylic acid, 2-methoxy-4-(2-methylpropyl)-5-(3,3-dioxo-1,3-oxathiolan-2-yl)-6-(trifluoromethyl)-, methyl ester] | 25 to 49 | 75 to 100 | 0 to 24 | 75 to 100 | 0 to 24 | 25 to 49 | 50 to 74 | 50 to 74 | 75 to 100 | 75 to 100 |
| COC(=O)c1c(OC)nc(C(F)(F)F)c(C2OCCO2)c1CC(C)C [Compound 109, 3-pyridinecarboxylic acid, 5-(1,3-dioxolan-2-yl)-2-methoxy-4-(2-methylpropyl)-6-(trifluoromethyl)-, methyl ester] | 75 to 100 | 75 to 100 | 75 to 100 | 75 to 100 | 75 to 100 | 75 to 100 | 75 to 100 | 75 to 100 | 75 to 100 | 75 to 100 |
